We go through 25 compounds from patent US20250236608A1, “EGFR INHIBITORS” (Blueprint Medicines Corporation, priority 2022, published 2025).

Assay [1] deals with pEGFR (Tyr1068) in PC-9 cells (Ex19Del) (Homo sapiens (Human), UniProt P00533, DEL746-750). Kind of assay: PC-9 pEGFR AlphaLISA assay. The assay is classed as cell-based. The settings on record: 4 hours incubation, p-EGFR (Tyr1068) AlphaLISA, read-out: Ext pEGFR_PC-9 Ex19Del IC50. The method in brief: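 PC-9 cells seeded overnight in phenol-free DMEM with 10% FBS, then treated 4 h at 37°C with a 10-point, 4-fold compound series. Lysates assayed for pEGFR Tyr1068 by AlphaLISA SureFire; IC50 from % inhibition vs log concentration.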
On the technique in general: Bead proximity is the source of the signal in Alpha formats.

The next assay deals with EGFR L858R (Homo sapiens (Human), UniProt P00533, L858R). Briefly: Biochemical EGFR inhibition assay, EGFR L858R. The settings on record: Caliper mobility shift; 1.0 mM ATP or ATP Km; read-out: Enz EGFR_L858R IC50.
The target of another assay is EGFR (d746-750) (Homo sapiens (Human), UniProt P00533, DEL746-750). Kind of assay: Biochemical EGFR inhibition assay, EGFR (d746-750). The settings on record: Caliper mobility shift; 1.0 mM ATP or ATP Km; read-out: Enz EGFR_Exon19-del746-750 IC50.

SMILES strings stand for the structures.

In general, IC50 refers to the point on the concentration scale where inhibition reaches its midpoint.

Chain of EGFR L858R (P00533 25-1210 L858R): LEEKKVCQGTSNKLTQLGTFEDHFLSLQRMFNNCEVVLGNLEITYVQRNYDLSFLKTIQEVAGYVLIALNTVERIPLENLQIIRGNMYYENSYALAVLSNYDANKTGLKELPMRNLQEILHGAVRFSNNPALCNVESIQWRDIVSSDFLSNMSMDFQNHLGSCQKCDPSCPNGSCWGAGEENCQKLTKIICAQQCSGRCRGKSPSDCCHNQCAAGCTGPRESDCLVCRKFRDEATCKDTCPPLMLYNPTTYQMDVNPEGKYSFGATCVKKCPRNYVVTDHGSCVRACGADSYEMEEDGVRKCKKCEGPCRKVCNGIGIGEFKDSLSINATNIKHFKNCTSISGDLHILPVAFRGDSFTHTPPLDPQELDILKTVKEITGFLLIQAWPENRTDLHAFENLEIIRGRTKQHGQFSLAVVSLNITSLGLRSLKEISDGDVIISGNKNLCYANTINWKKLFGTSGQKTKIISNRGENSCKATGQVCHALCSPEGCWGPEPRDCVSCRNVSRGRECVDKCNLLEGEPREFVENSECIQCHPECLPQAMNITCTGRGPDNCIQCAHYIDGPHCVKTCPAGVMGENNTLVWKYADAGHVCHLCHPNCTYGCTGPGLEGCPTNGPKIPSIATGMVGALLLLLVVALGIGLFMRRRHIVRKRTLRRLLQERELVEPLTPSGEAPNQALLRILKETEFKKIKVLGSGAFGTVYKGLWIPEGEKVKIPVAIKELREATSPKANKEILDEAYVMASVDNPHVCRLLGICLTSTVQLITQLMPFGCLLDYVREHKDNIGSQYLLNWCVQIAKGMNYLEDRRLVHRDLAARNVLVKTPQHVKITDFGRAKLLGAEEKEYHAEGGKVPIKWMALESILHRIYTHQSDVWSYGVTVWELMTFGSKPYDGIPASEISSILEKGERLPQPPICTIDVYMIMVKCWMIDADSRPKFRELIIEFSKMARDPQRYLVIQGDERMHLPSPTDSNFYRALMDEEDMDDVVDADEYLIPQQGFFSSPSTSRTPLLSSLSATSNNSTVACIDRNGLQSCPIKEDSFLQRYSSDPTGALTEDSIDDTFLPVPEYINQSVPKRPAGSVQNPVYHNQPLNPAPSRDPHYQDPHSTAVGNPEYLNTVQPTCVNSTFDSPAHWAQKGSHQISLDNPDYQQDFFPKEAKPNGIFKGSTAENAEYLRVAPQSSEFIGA
Chain of pEGFR (Tyr1068) in PC-9 cells (Ex19Del) (P00533 other isoform, or with tags, fused parts or gaps del 746-750): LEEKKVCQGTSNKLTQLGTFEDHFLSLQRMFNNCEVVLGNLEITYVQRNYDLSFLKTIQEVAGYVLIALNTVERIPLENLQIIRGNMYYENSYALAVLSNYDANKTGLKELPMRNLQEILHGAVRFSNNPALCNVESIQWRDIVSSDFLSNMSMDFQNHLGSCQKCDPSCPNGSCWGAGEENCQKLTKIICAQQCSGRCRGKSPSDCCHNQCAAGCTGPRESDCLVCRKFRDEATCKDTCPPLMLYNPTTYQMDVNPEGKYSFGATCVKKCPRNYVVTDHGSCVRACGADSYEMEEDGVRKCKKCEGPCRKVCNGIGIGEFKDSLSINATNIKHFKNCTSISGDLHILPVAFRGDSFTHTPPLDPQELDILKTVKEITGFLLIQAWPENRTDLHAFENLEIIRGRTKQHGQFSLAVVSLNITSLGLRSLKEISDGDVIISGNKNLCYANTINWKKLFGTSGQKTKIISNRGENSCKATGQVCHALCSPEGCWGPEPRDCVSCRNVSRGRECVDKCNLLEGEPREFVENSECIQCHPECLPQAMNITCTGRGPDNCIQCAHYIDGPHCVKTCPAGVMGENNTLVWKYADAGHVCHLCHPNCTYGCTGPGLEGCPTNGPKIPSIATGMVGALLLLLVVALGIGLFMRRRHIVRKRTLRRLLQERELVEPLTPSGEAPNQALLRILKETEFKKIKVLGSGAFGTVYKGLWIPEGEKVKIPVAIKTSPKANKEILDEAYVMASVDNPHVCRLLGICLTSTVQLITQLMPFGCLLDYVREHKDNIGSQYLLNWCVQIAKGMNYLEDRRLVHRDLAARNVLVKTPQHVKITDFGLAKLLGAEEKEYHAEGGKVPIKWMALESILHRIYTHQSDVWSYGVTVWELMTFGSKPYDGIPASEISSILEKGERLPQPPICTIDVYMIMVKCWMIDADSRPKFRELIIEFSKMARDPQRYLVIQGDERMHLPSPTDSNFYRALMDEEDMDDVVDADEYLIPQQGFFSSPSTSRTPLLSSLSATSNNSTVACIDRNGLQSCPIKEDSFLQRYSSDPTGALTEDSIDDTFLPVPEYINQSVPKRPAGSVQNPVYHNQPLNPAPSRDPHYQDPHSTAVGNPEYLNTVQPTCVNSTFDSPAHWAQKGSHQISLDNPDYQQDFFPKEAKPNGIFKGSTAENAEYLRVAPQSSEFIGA
Chain of EGFR (d746-750) (P00533 other isoform, or with tags, fused parts or gaps del 1-694/del 746-750 limits assumed): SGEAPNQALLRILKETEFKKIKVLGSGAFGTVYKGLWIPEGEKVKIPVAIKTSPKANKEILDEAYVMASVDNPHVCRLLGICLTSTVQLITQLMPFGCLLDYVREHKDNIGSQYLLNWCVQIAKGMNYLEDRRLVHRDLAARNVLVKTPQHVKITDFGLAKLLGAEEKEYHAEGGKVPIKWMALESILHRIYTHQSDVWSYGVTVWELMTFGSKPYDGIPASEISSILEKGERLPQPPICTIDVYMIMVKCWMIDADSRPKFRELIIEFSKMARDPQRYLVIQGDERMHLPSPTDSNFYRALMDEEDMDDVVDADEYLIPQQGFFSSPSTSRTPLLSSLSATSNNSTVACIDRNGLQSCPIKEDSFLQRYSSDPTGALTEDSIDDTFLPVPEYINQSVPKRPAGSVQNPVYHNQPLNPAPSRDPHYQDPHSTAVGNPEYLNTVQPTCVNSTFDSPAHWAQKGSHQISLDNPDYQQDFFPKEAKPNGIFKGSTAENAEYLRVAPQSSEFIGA

Take `COc1cc2ncnc(-c3cn(C)nc3-c3ccccc3)c2cc1NC(=O)C(C)(C)N(C)C` [Example 246, 2-(dimethylamino)-N-(7-methoxy-4-(1-methyl-3-phenyl-1H-pyrazol-4-yl)quinazolin-6-yl)-2-methylpropanamide]: the IC50 in assay [1] turned out to be 7.8 nM; at EGFR L858R, 5.6 nM; at EGFR (d746-750), 2.5 nM.

On to `CCC(=O)Nc1cc2c(-c3cn(C4CCOCC4)nc3-c3ccccc3)ncnc2cc1OC` [Example 248, N-(7-methoxy-4-(3-phenyl-1-(tetrahydro-2H-pyran-4-yl)-1H-pyrazol-4-yl)quinazolin-6-yl)propionamide], for which the concentration for half-maximal inhibition (IC50) in assay [1] came out at 1.3 nM; on EGFR L858R, 2 nM; on EGFR (d746-750), 1.5 nM.

For `CCC(=O)Nc1cc2c(-c3cn(C4COC4)nc3-c3ccccc3)ncnc2cc1OC` [Example 249, N-(7-methoxy-4-(1-(oxetan-3-yl)-3-phenyl-1H-pyrazol-4-yl)quinazolin-6-yl)propionamide], the half-inhibitory concentration (IC50) in assay [1] turned out to be 2.1 nM; at EGFR L858R, 2.2 nM; at EGFR (d746-750), 1.4 nM.

For `CCC(=O)Nc1cc2c(-c3cn(CC(F)F)nc3-c3ccccc3)ncnc2cc1OC` [Example 250, N-(4-(1-(2,2-difluoroethyl)-3-phenyl-1H-pyrazol-4-yl)-7-methoxyquinazolin-6-yl)propionamide], the IC50 in assay [1] was 0.9 nM; at EGFR L858R, 1.4 nM; on EGFR (d746-750), 1 nM.

Consider `COc1cc2ncnc(-c3cn(CCO)nc3-c3ccccc3)c2cc1NC(=O)c1ccccc1F` [Example 264, 2-fluoro-N-(4-(1-(2-hydroxyethyl)-3-phenyl-1H-pyrazol-4-yl)-7-methoxyquinazolin-6-yl)benzamide], for which the concentration for half-maximal inhibition (IC50) in assay [1] was 0.3 nM; on EGFR L858R, 0.6 nM; at EGFR (d746-750), 0.4 nM.

Turning to `COc1cc2ncnc(-c3cn(CCO)nc3-c3ccccc3)c2cc1NC(=O)C12CC(C1)C2` [Example 265, N-(4-(1-(2-hydroxyethyl)-3-phenyl-1H-pyrazol-4-yl)-7-methoxyquinazolin-6-yl)bicyclo[1.1.1]pentane-1-carboxamide], the figures for the IC50 (in assay [1]; on EGFR L858R; at EGFR (d746-750)) were 2.3 nM, 3.2 nM and 1.8 nM, respectively.

For the compound `COc1cc2ncnc(-c3sc(C)nc3-c3ccccc3)c2cc1NC(=O)C1CC1` [Example 266, N-(7-methoxy-4-(2-methyl-4-phenylthiazol-5-yl)quinazolin-6-yl)cyclopropanecarboxamide], the values for the IC50 (in assay [1]; on EGFR L858R; at EGFR (d746-750)) were 4.9 nM, 1.5 nM and 1 nM, respectively.

Turning to `CCOc1cc2ncnc(-c3cn(C)nc3-c3ccccc3)c2cc1N1CCOCC1=O` [Example 267, 4-(7-ethoxy-4-(1-methyl-3-phenyl-1H-pyrazol-4-yl)quinazolin-6-yl)morpholin-3-one], the IC50 in assay [1] is 12.1 nM; on EGFR L858R it was 109 nM; on EGFR (d746-750), 9.8 nM.

In the case of `CCn1cc(C(=O)Nc2cc3c(-c4cn(CC(F)F)nc4-c4ccccc4)ncnc3cc2OC)cn1` [Example 268, N-(4-(1-(2,2-difluoroethyl)-3-phenyl-1H-pyrazol-4-yl)-7-methoxyquinazolin-6-yl)-1-ethyl-1H-pyrazole-4-carboxamide], the IC50 in assay [1] worked out at 0.8 nM; at EGFR L858R it was 1.8 nM; at EGFR (d746-750), 1.1 nM.

In the case of `COc1cc2ncnc(-c3cn(CC(F)F)nc3-c3ccccc3)c2cc1NC(=O)C(F)F` [Example 269, N-(4-(1-(2,2-difluoroethyl)-3-phenyl-1H-pyrazol-4-yl)-7-methoxyquinazolin-6-yl)-2,2-difluoroacetamide], the IC50 in assay [1] was 0.9 nM; on EGFR L858R, 1.3 nM; on EGFR (d746-750), 0.9 nM.

For `COc1cc2ncnc(-c3cn(CC(F)F)nc3-c3ccccc3)c2cc1NC(=O)c1cnn(C(C)C)c1` [Example 270, N-(4-(1-(2,2-difluoroethyl)-3-phenyl-1H-pyrazol-4-yl)-7-methoxyquinazolin-6-yl)-1-isopropyl-1H-pyrazole-4-carboxamide], the half-maximal inhibitory concentration (IC50) in assay [1] turned out to be 1.4 nM; on EGFR L858R, 2.1 nM; at EGFR (d746-750), 1.4 nM.

On to `COc1cc2ncnc(-c3cn(CC(F)F)nc3-c3ccccc3)c2cc1NC(=O)c1cnsc1` [Example 271, N-(4-(1-(2,2-difluoroethyl)-3-phenyl-1H-pyrazol-4-yl)-7-methoxyquinazolin-6-yl)isothiazole-4-carboxamide], for which the results for the IC50 (in assay [1]; at EGFR L858R; on EGFR (d746-750)) were 1 nM, 1.3 nM and 0.8 nM, respectively.

With `COc1cc2ncnc(-c3cn(CC(F)F)nc3-c3ccccc3)c2cc1NC(=O)c1ccns1` [Example 272, N-(4-(1-(2,2-difluoroethyl)-3-phenyl-1H-pyrazol-4-yl)-7-methoxyquinazolin-6-yl)isothiazole-5-carboxamide], the 50% inhibitory concentration (IC50) came out at 0.5 nM in assay [1], 1.2 nM on EGFR L858R and 1 nM at EGFR (d746-750).

As to `COc1cc2ncnc(-c3cn(CC(F)F)nc3-c3ccccc3)c2cc1NC(=O)c1scnc1C` [Example 273, N-(4-(1-(2,2-difluoroethyl)-3-phenyl-1H-pyrazol-4-yl)-7-methoxyquinazolin-6-yl)-4-methylthiazole-5-carboxamide], the IC50 was 0.6 nM in assay [1], 1.5 nM at EGFR L858R and 1 nM at EGFR (d746-750).

As to `COc1cc2ncnc(-c3cn(CC(F)F)nc3-c3ccccc3)c2cc1NC(=O)c1cnc(C)s1` [Example 274, N-(4-(1-(2,2-difluoroethyl)-3-phenyl-1H-pyrazol-4-yl)-7-methoxyquinazolin-6-yl)-2-methylthiazole-5-carboxamide], the IC50 in assay [1] came to 0.6 nM; at EGFR L858R it was 1.5 nM; on EGFR (d746-750), 0.9 nM.

As to `COc1cc2ncnc(-c3cn(CC(F)F)nc3-c3ccccc3)c2cc1NC(=O)[C@]12COC[C@H]1C2` [Example 275, (1S,5S)—N-(4-(1-(2,2-difluoroethyl)-3-phenyl-1H-pyrazol-4-yl)-7-methoxyquinazolin-6-yl)-3-oxabicyclo[3.1.0]hexane-1-carboxamide], the figures for the IC50 (in assay [1]; at EGFR L858R; on EGFR (d746-750)) were 1.9 nM, 1.9 nM and 1.3 nM, respectively.

Turning to `COc1cc2ncnc(-c3cn(CC(F)F)nc3-c3ccccc3)c2cc1NC(=O)[C@@]12COC[C@@H]1C2` [Example 276, (1R,5R)—N-(4-(1-(2,2-difluoroethyl)-3-phenyl-1H-pyrazol-4-yl)-7-methoxyquinazolin-6-yl)-3-oxabicyclo[3.1.0]hexane-1-carboxamide], the results for the IC50 (in assay [1]; on EGFR L858R; on EGFR (d746-750)) were 1.3 nM, 2 nM and 1.6 nM, respectively.

Regarding `CCC(=O)Nc1cc2c(-c3cn(C)nc3-c3ccccc3)ncnc2cc1OCC1COC1` [Example 277, N-(4-(1-methyl-3-phenyl-1H-pyrazol-4-yl)-7-(oxetan-3-ylmethoxy)quinazolin-6-yl)propionamide], the concentration for half-maximal inhibition (IC50) in assay [1] is 6 nM; at EGFR L858R, 3.7 nM; on EGFR (d746-750), 1.9 nM.

Take `COc1cc2ncnc(-c3cn(C)nc3-c3ccccc3)c2cc1NC(=O)C12COCC1C2` (stereo not drawn) [Example 278, N-(7-methoxy-4-(1-methyl-3-phenyl-1H-pyrazol-4-yl)quinazolin-6-yl)-3-oxabicyclo[3.1.0]hexane-1-carboxamide]: the half-inhibitory concentration (IC50) worked out at 7.8 nM in assay [1], 4.5 nM at EGFR L858R and 2.3 nM on EGFR (d746-750).

`Cn1cc(-c2ncnc3cc(OC(F)F)c(NC(=O)C4CC4)cc23)c(-c2ccccc2)n1` [Example 279, N-(7-(difluoromethoxy)-4-(1-methyl-3-phenyl-1H-pyrazol-4-yl)quinazolin-6-yl)cyclopropanecarboxamide]: the IC50 in assay [1] turned out to be 6.5 nM; at EGFR L858R, 3.3 nM; on EGFR (d746-750), 1.8 nM.

Regarding `COc1cc2ncnc(-c3cn(C)nc3-c3ccccc3)c2cc1NC(=O)C[C@H]1CCCO1` [Example 280, (R)—N-(7-methoxy-4-(1-methyl-3-phenyl-1H-pyrazol-4-yl)quinazolin-6-yl)-2-(tetrahydrofuran-2-yl) acetamide], the 50% inhibitory concentration (IC50) was determined as 2.5 nM in assay [1], 2.4 nM at EGFR L858R and 1.7 nM on EGFR (d746-750).

Consider `COc1cc2ncnc(-c3cn(C)nc3-c3ccccc3)c2cc1NC(=O)C[C@@H]1CCCO1` [Example 281, (S)—N-(7-methoxy-4-(1-methyl-3-phenyl-1H-pyrazol-4-yl)quinazolin-6-yl)-2-(tetrahydrofuran-2-yl) acetamide], for which the 50% inhibitory concentration (IC50) came to 2.3 nM in assay [1], 2.2 nM on EGFR L858R and 1.4 nM at EGFR (d746-750).

As for `COc1cc2ncnc(-c3cn(C)nc3-c3ccccc3)c2cc1NC(=O)[C@H]1C[C@H]1C` [Example 282, (1S,2R)—N-(7-methoxy-4-(1-methyl-3-phenyl-1H-pyrazol-4-yl)quinazolin-6-yl)-2-methylcyclopropane-1-carboxamide], the results for the 50% inhibitory concentration (IC50) (in assay [1]; at EGFR L858R; at EGFR (d746-750)) were 0.7 nM, 2.2 nM and 1.6 nM, respectively.

Take `COc1cc2ncnc(-c3cn(C)nc3-c3ccccc3)c2cc1NC(=O)[C@@H]1C[C@@H]1C` [Example 283, (1R,2S)—N-(7-methoxy-4-(1-methyl-3-phenyl-1H-pyrazol-4-yl)quinazolin-6-yl)-2-methylcyclopropane-1-carboxamide]: the values for the IC50 (in assay [1]; at EGFR L858R; on EGFR (d746-750)) were 1.1 nM, 1.7 nM and 0.9 nM, respectively.

With `COc1cc2ncnc(-c3cn(C)nc3-c3ccccc3)c2cc1NC(=O)[C@@H]1CCN(C)C[C@H]1F` [Example 284, (3S,4S)-3-fluoro-N-(7-methoxy-4-(1-methyl-3-phenyl-1H-pyrazol-4-yl)quinazolin-6-yl)-1-methylpiperidine-4-carboxamide], the 50% inhibitory concentration (IC50) in assay [1] was determined as 18.7 nM; on EGFR L858R, 8.7 nM; at EGFR (d746-750), 4.7 nM.
